Test results published in ChEMBL document CHEMBL1201862, “PubChem BioAssay data set” (2004).
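How tested: cells in 96-well plates exposed to compound for 48 hours at five concentrations. At the GI50, growth is halved.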 The source made the active and inactive calls. Cut-off read from the data, not from the text of the source: active = GI50 up to about 1.1 µM and inactive = higher.

Columns and labels:
Experiment in all cases: growth of human tumour cells (NCI), 48 h
[1] = tested on: SK-OV-3
[2] = tested on: MDA-MB-231
[3] = tested on: TK-10
[4] = tested on: HCC 2998
[5] = tested on: SN12C
[6] = tested on: HL-60
[7] = tested on: MCF7
[8] = tested on: SK-MEL-28
[9] = tested on: PC-3
[10] = tested on: K562
[11] = tested on: OVCAR-3
[12] = tested on: Hs-578T
[13] = tested on: NCI-H23
[14] = tested on: HT-29
[15] = tested on: BT-549
[16] = tested on: SK-MEL-2
[17] = tested on: LOX IMVI
[18] = tested on: SNB-75

Row | SMILES | GI50 [1] | GI50 [2] | GI50 [3] | GI50 [4] | GI50 [5] | GI50 [6] | GI50 [7] | GI50 [8] | GI50 [9] | GI50 [10] | GI50 [11] | GI50 [12] | GI50 [13] | GI50 [14] | GI50 [15] | GI50 [16] | GI50 [17] | GI50 [18]
1 | O=C1Nc2ccccc2/C1=C\c1c(Cl)[nH]c2ccccc12 | 0.32 µM (active) | 1.45 µM (inactive) | 1.35 µM (inactive) | 0.416 µM (active) | 2.85 µM (inactive) | 0.251 µM (active) | 0.366 µM (active) | 0.299 µM (active) | 0.649 µM (active) | 0.364 µM (active) | 0.592 µM (active) | 0.409 µM (active) | 2.45 µM (inactive) | 0.222 µM (active) | 0.832 µM (active) | 1.11 µM (active) | 1.07 µM (active) | –
2 | Cn1c(CCC2(C)Cc3ccccc3C(=O)O2)cc2ccccc2c1=O (centres undefined) | 30.5 µM (inactive) | 45.1 µM (inactive) | – | 34.4 µM (inactive) | 44 µM (inactive) | 27.2 µM (inactive) | 24.2 µM (inactive) | 28.8 µM (inactive) | 17.7 µM (inactive) | 2.96 µM (inactive) | 21 µM (inactive) | 37.7 µM (inactive) | 24.7 µM (inactive) | – | 21.8 µM (inactive) | 24.2 µM (inactive) | – | 22.4 µM (inactive)
3 | Clc1n[nH]c2ccccc12 | > 100 µM (inactive) | > 100 µM (inactive) | > 100 µM (inactive) | > 100 µM (inactive) | > 100 µM (inactive) | > 100 µM (inactive) | > 100 µM (inactive) | > 100 µM (inactive) | > 100 µM (inactive) | > 100 µM (inactive) | > 100 µM (inactive) | > 100 µM (inactive) | > 100 µM (inactive) | > 100 µM (inactive) | 14.7 µM (inactive) | > 100 µM (inactive) | – | > 100 µM (inactive)
4 | O=C(NCCNCCO)N/N=C/c1ccc(Cl)cc1 | > 100 µM (inactive) | > 100 µM (inactive) | > 100 µM (inactive) | > 100 µM (inactive) | > 100 µM (inactive) | > 100 µM (inactive) | > 100 µM (inactive) | > 100 µM (inactive) | > 100 µM (inactive) | > 100 µM (inactive) | > 100 µM (inactive) | > 100 µM (inactive) | > 100 µM (inactive) | > 100 µM (inactive) | > 100 µM (inactive) | > 100 µM (inactive) | – | 36.1 µM (inactive)
5 | COc1ccc(-c2c(/C=N/OCC(=O)O)c3sc4ccccc4n3c2/C=N/OCC(=O)O)cc1 | > 50 µM (inactive) | > 50 µM (inactive) | > 50 µM (inactive) | > 50 µM (inactive) | > 50 µM (inactive) | – | > 50 µM (inactive) | > 50 µM (inactive) | > 50 µM (inactive) | > 50 µM (inactive) | > 50 µM (inactive) | > 50 µM (inactive) | > 50 µM (inactive) | > 50 µM (inactive) | > 50 µM (inactive) | > 50 µM (inactive) | > 50 µM (inactive) | > 50 µM (inactive)
6 | CCCCCCCCCC(=O)NCCc1c[nH]c2ccc(OC)cc12 | 17.4 µM (inactive) | 15.1 µM (inactive) | 18.2 µM (inactive) | 19.5 µM (inactive) | 17.4 µM (inactive) | – | 17.5 µM (inactive) | 17.9 µM (inactive) | 15.3 µM (inactive) | 55 µM (inactive) | 15.9 µM (inactive) | 20.1 µM (inactive) | 17.3 µM (inactive) | 23.2 µM (inactive) | 18.6 µM (inactive) | 16.1 µM (inactive) | 13.8 µM (inactive) | 20.6 µM (inactive)
7 | Cc1ccc(N2C=Nn3c(nc4sc5c(c4c3=O)CCCC5)C2)cc1 | > 100 µM (inactive) | 43.6 µM (inactive) | 86.1 µM (inactive) | 39.9 µM (inactive) | 63.8 µM (inactive) | – | 38.3 µM (inactive) | 93.5 µM (inactive) | 49.4 µM (inactive) | 38.5 µM (inactive) | 49.4 µM (inactive) | 28.1 µM (inactive) | 41.7 µM (inactive) | 47.1 µM (inactive) | > 100 µM (inactive) | > 100 µM (inactive) | 47.4 µM (inactive) | 52 µM (inactive)
8 | CN1CC[C@]2(c3cccc(O)c3)CC(=O)/C(=C/c3ccc(Cl)c(Cl)c3)[C@@H]1C2 | – | 1.15 µM (inactive) | 1.86 µM (inactive) | 1.41 µM (inactive) | 1.04 µM (active) | 0.199 µM (active) | 1.29 µM (inactive) | 1.55 µM (inactive) | 0.324 µM (active) | 0.296 µM (active) | – | 3.05 µM (inactive) | 1.53 µM (inactive) | 1.01 µM (active) | 1.75 µM (inactive) | – | 0.175 µM (active) | 0.455 µM (active)
9 | Cn1c(=O)cc(Nc2ccc(N)cc2)[nH]c1=O | > 100 µM (inactive) | > 100 µM (inactive) | > 100 µM (inactive) | > 100 µM (inactive) | > 100 µM (inactive) | – | 49.4 µM (inactive) | > 100 µM (inactive) | > 100 µM (inactive) | > 100 µM (inactive) | > 100 µM (inactive) | > 100 µM (inactive) | > 100 µM (inactive) | > 100 µM (inactive) | > 100 µM (inactive) | > 100 µM (inactive) | > 100 µM (inactive) | > 100 µM (inactive)
10 | CN(CCNC(=O)c1cn(C)c2c1ccc1ccccc12)CCNC(=O)c1cn(C)c2c1ccc1ccccc12 | 8.04 µM (inactive) | 1.47 µM (inactive) | 1.92 µM (inactive) | 0.71 µM (active) | 2.64 µM (inactive) | – | 1.51 µM (inactive) | 1.97 µM (inactive) | 2.42 µM (inactive) | 0.365 µM (active) | 2.26 µM (inactive) | 2.18 µM (inactive) | 3.14 µM (inactive) | 6.05 µM (inactive) | 1.26 µM (inactive) | 2.2 µM (inactive) | 2.52 µM (inactive) | 1.79 µM (inactive)
11 | CSc1csc(-c2ccc(-c3ccc(-c4cc(SC)cs4)s3)s2)c1 | > 100 µM (inactive) | > 100 µM (inactive) | > 100 µM (inactive) | > 100 µM (inactive) | > 100 µM (inactive) | – | > 100 µM (inactive) | > 100 µM (inactive) | > 100 µM (inactive) | > 100 µM (inactive) | > 100 µM (inactive) | > 100 µM (inactive) | > 100 µM (inactive) | > 100 µM (inactive) | > 100 µM (inactive) | > 100 µM (inactive) | > 100 µM (inactive) | > 100 µM (inactive)
12 | CC(=O)Oc1ccc2c(-c3ccccc3)c(Oc3ccc(Cl)cc3)c(=O)oc2c1 | – | 18.7 µM (inactive) | 13.5 µM (inactive) | 7.55 µM (inactive) | 24.1 µM (inactive) | 42.3 µM (inactive) | 20.7 µM (inactive) | 17.7 µM (inactive) | 23.1 µM (inactive) | 14.8 µM (inactive) | 14.5 µM (inactive) | 20.1 µM (inactive) | 18.7 µM (inactive) | 20.8 µM (inactive) | 18.8 µM (inactive) | – | 20.6 µM (inactive) | 7.45 µM (inactive)
